In brackets after ≈: the same amount, converted by molar mass. Where two headings read alike, the source gives them in different places.
Key:
S. aureus (340) = assay: MIC determination by microplate dilution, S. aureus animal strain; assay type: cell-based, Staphylococcus aureus; settings: Gram-positive, Mueller-Hinton medium, 24 h, 37° C.; for MIC: Staphylococcus aureus
How it was run: (§1)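 MH broth; inoculum OD 0.01/well; compound stock 5 mg/mL (DMSO:MeOH 1:1), serial 1/2 dilutions; 37 °C, 24 h, humid; OD 620 nm; n=2.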

S. intermedius (1051997) = assay: MIC determination by microplate dilution, S. intermedius animal strain; assay type: cell-based, Staphylococcus intermedius; settings: Gram-positive, Mueller-Hinton medium, 24 h, 37° C.; for MIC: Staphylococcus intermedius
How it was run: as §1

P. aeruginosa (1051575) [1] = assay: Potentiation of erythromycin activity; assay type: cell-based, Pseudomonas aeruginosa; settings: concentration of compound required with erythromycin 2 μg/mL
Experimental: (§2) This method requires the use of a 96-well plate: 100 μL of a liquid culture medium are placed in each well and then seeded with the microbial suspension prepared previously. The required volume to be seeded is calculated for an OD of 0.01, which corresponds to about 5×10^6 bacteria in each well. In this plate, the first line corresponds to a negative control (200 μL of sterile culture medium in each well), the second line corresponds to a positive control (100 μL of sterile culture medium+100 μL of the bacterial suspension), and the third line contains 192 μL of culture medium; 8 μL of compound of formula (I) to be tested are placed in each well. Thereafter, a cascade dilution is performed from this line. μL of a doxycycline solution (1 mg dissolved in 20 mL) are then added to each well of the lines 3 to 8 to obtain a final antibiotic concentration of 2 μg/mL. 92 μL of bacterial suspension are then added to lines 3 to 8. […] After 24 hours of incubation at 37° C., 40 μL of nitro tetrazolium iodide are added to each well to reveal the presence of live bacteria by staining the medium pink.
The procedure is identical to that indicated in Example 5 above. 8 μL of an antibiotic solution under consideration (1 mg dissolved in 20 mL) are added to obtain a final antibiotic concentration of 2 μg/mL instead of 8 μL of a doxycycline solution.
(§3) The results are given in table V. They indicate the concentration of compound of formula (I) required to be able to restore the activity of the antibiotic under consideration.

S. aureus ATCC25923 = assay: MIC determination by microplate dilution, S. aureus human strain; assay type: cell-based, Staphylococcus aureus; settings: Mueller-Hinton medium, 24 h, 37° C.; for MIC: Staphylococcus aureus, ATCC25923, Gram-positive
How it was run: as §1

P. aeruginosa (1051575) [2] = assay: Potentiation of chloramphenicol activity; assay type: cell-based, Pseudomonas aeruginosa
Experimental: as §2, with “Thereafter, a cascade dilution is performed from this line. μL of a doxycycline solution (1 mg dissolved in 20 mL) are then added to each well of the lines 3 to 8 to obtain a final antibiotic concentration of 2 μg/mL.” left out
(§4) The procedure is identical to that indicated in Example 5 above. […]
as §3

P. aeruginosa (1051575) [3] = assay: MIC determination by microplate dilution, P. aeruginosa animal strain; assay type: cell-based, Pseudomonas aeruginosa; settings: Gram-negative, Mueller-Hinton medium, 24 h, 37° C.; for MIC: Pseudomonas aeruginosa
How it was run: as §1

E. faecalis ATCC29212 = assay: MIC determination by microplate dilution, E. faecalis human strain; assay type: cell-based, Enterococcus faecalis; settings: Mueller-Hinton medium, 24 h, 37° C.; for MIC: Enterococcus faecalis, ATCC29212, Gram-positive
How it was run: as §1

CHO-K1 cells = assay: WST1 cytotoxicity test on CHO-K1 cells; assay type: cell-based, Chinese hamster; settings: for IC50: Cricetulus griseus
How it was run: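 CHO-K1 cells seeded 24 h, then exposed to increasing compound concentrations in duplicate for 24 h at 37 °C, 5% CO2. Viability by WST-1 reduction (20 min, 37 °C), absorbance at 450 nm. IC50 = concentration reducing viability by 50%, from nonlinear regression of dose-response.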

P. aeruginosa (1051575) [4] = assay: Potentiation of ampicillin activity; assay type: cell-based, Pseudomonas aeruginosa; settings: concentration of compound required with ampicillin 4 μg/mL
Experimental: as §2, with “Thereafter, a cascade dilution is performed from this line. μL of a doxycycline solution (1 mg dissolved in 20 mL) are then added to each well of the lines 3 to 8 to obtain a final antibiotic concentration of 2 μg/mL.” left out
as §4, §3

E. coli ATCC28922 = assay: MIC determination by microplate dilution, E. coli human strain; assay type: cell-based, Escherichia coli; settings: Mueller-Hinton medium, 24 h, 37° C.; for MIC: Escherichia coli, ATCC28922, Gram-negative
How it was run: as §1

C. albicans = assay: Antifungal activity, cascade microdilution, C. albicans; assay type: cell-based, Candida albicans; settings: 24 h; for IC50: Candida albicans, read-out: IC50 (μg/mL) C. albicans
P. aeruginosa (1051575) [5] = assay: Potentiation of the doxycycline activity at 2 μg/mL; assay type: cell-based, Pseudomonas aeruginosa; settings: for MIC - P. aeruginosa (1051575): content of compound of formula (I) to restore the doxycycline activity (at 2 μg/mL): in combination with doxycycline 2 μg/mL, 24 h, 37°
E. coli (1956) = assay: MIC determination by microplate dilution, E. coli animal strain; assay type: cell-based, Escherichia coli; settings: Gram-negative, Mueller-Hinton medium, 24 h, 37° C.; for MIC: Escherichia coli
How it was run: as §1

P. aeruginosa ATCC27853 = assay: MIC determination by microplate dilution, P. aeruginosa human strain; assay type: cell-based, Pseudomonas aeruginosa; settings: Mueller-Hinton medium, 24 h, 37° C.; for MIC: Pseudomonas aeruginosa, ATCC27853, Gram-negative
How it was run: as §1

[6] = concentration of compound required with chloramphenicol 4 μg/mL
[7] = CHO-K1, 24 h, read-out: IC50 (μg/mL) CHO
[8] = CHO-K1, read-out: IC50 (μg/mL) CHO
[9] = concentration of compound required with chloramphenicol 2 μg/mL
[10] = compounds as hydrochloride in water, MH medium

Row | Molecule | MIC (S. aureus (340)) [µg/mL] | MIC (S. intermedius (1051997)) [µg/mL] | MIC P. aeruginosa (1051575), compound + erythromycin (P. aeruginosa (1051575) [1]) [µg/mL] | MIC (S. aureus ATCC25923) [µg/mL] | MIC (P. aeruginosa (1051575) [3]) [µg/mL] | MIC (E. faecalis ATCC29212) [µg/mL] | MIC (E. coli ATCC28922) [µg/mL] | MIC - P. aeruginosa (1051575): content of compound of formula (I) to restore the doxycycline activity (at 2 μg/mL) (P. aeruginosa (1051575) [5]) [µg/mL] | MIC (E. coli (1956)) [µg/mL] | MIC P. aeruginosa (1051575), compound + chloramphenicol (P. aeruginosa (1051575) [2]; [9]) [µg/mL] | other results
1 | CC(C)OC(=O)CC[C@@H](C)[C@H]1CCC2C3C(CC[C@@]21C)[C@@]1(C)CC[C@H](NCCCNCCCN)CC1C[C@H]3O (stereo partly drawn) [(11), isopropyl 3β-norspermidinochenodeoxycholate] | 2 (≈ 3.65 µM) | 2 (≈ 3.65 µM) | 28 | 7 (≈ 12.8 µM) | 14 (≈ 25.6 µM) | 3.5 (≈ 6.39 µM) | 14 (≈ 25.6 µM) | 1 |  |  | MIC P. aeruginosa (1051575), compound + chloramphenicol (P. aeruginosa (1051575) [2]; [6]): 2 µg/mL; IC50 (CHO-K1 cells; [7]): 140 µg/mL (≈ 256 µM); IC50 (CHO-K1 cells; [8]): 140 µg/mL (≈ 256 µM); MIC P. aeruginosa (1051575), compound + ampicillin (P. aeruginosa (1051575) [4]): 56 µg/mL; IC50 (C. albicans): 4 µg/mL (≈ 7.3 µM); synergism with doxycycline (P. aeruginosa (1051575) [5]; administered with doxycycline at 2 μg/mL): noteworthy synergism
2 | CC(C)OC(=O)CC[C@@H](C)[C@H]1CCC2C3CCC4C[C@@H](NCCNCCNCCNCCNCCN)CC[C@]4(C)C3CC[C@@]21C (stereo partly drawn) [(26), isopropyl 3β-(pentaethylenehexamine)lithocholate] | 18 (≈ 28.4 µM) | 8 (≈ 12.6 µM) | 60 |  | 60 (≈ 94.8 µM) |  |  |  | 60 (≈ 94.8 µM) | 8 | 
3 | CC(C)OC(=O)CC[C@@H](C)[C@H]1CCC2C3CCC4C[C@@H](NCCN(CCN)CCN)CC[C@]4(C)C3C[C@H](O)[C@@]21C (stereo partly drawn) [(29), isopropyl 3β-(tris(2-aminoethyl)amine)deoxycholate] | 14 (≈ 24.9 µM) | 14 (≈ 24.9 µM) | 56 | 28 (≈ 49.7 µM) | 56 (≈ 99.5 µM) | 28 (≈ 49.7 µM) | 14 (≈ 24.9 µM) | 4 | 28 (≈ 49.7 µM) |  | MIC P. aeruginosa (1051575), compound + chloramphenicol (P. aeruginosa (1051575) [2]; [6]): 7 µg/mL; MIC P. aeruginosa (1051575), compound + ampicillin (P. aeruginosa (1051575) [4]): 56 µg/mL; MIC (P. aeruginosa ATCC27853): 56 µg/mL (≈ 99.5 µM)
4 | COC(=O)CC[C@@H](C)[C@H]1CCC2C3CCC4C[C@@H](NCCCN(CCCN)CCCN)CC[C@]4(C)C3C[C@H](O)[C@@]21C (stereo partly drawn) [(32), methyl 3β-(tris(3-aminopropyl)amine)deoxycholate] | 7 (≈ 12.1 µM) | 7 (≈ 12.1 µM) |  | 4 (≈ 6.93 µM) | 7 (≈ 12.1 µM) | 14 (≈ 24.3 µM) | 7 (≈ 12.1 µM) | 4 | 30 (≈ 52 µM) |  | IC50 (CHO-K1 cells; [7]): 30 µg/mL (≈ 52 µM); IC50 (CHO-K1 cells; [8]): 30 µg/mL (≈ 52 µM); IC50 (C. albicans): 2 µg/mL (≈ 3.47 µM); MIC (P. aeruginosa ATCC27853): 14 µg/mL (≈ 24.3 µM)
5 | CC(C)OC(=O)CC[C@@H](C)[C@H]1CCC2C3C(C[C@H](O)[C@@]21C)[C@@]1(C)CC[C@H](NCCCN(C)CCCN)CC1C[C@H]3O (stereo partly drawn) [(36), isopropyl 3β-(bis(3-aminopropyl)methylamine)cholate] | 29 (≈ 50.2 µM) | 14 (≈ 24.2 µM) | 58 | 29 (≈ 50.2 µM) | 58 (≈ 100 µM) | 58 (≈ 100 µM) | 58 (≈ 100 µM) | 4 | 58 (≈ 100 µM) |  | MIC P. aeruginosa (1051575), compound + chloramphenicol (P. aeruginosa (1051575) [2]; [6]): 8 µg/mL; MIC P. aeruginosa (1051575), compound + ampicillin (P. aeruginosa (1051575) [4]): 58 µg/mL; MIC (P. aeruginosa ATCC27853): 58 µg/mL (≈ 100 µM)
6 | CC(C)OC(=O)CC[C@@H](C)[C@H]1CCC2C3C(CC[C@@]21C)[C@@]1(C)CC[C@H](NCCN(CCN)CCN)CC1C[C@@H]3O (stereo partly drawn) [(43), isopropyl 3β-(tris(2-aminoethyl)amine)ursodeoxycholate] |  | 7 (≈ 12.4 µM) | 28 |  | 14 (≈ 24.9 µM) |  |  |  | 56 (≈ 99.5 µM) |  | 
7 | CC(C)OC(=O)CC[C@@H](C)[C@H]1CCC2C3C(CC[C@@]21C)[C@@]1(C)CC[C@H](NCCCN(C)CCCN)CC1C[C@@H]3O (stereo partly drawn) [(44), isopropyl 3β-(bis(3-aminopropyl)methylamine)ursodeoxycholate] | 28 (≈ 49.8 µM) | 14 (≈ 24.9 µM) | 55 |  | 28 (≈ 49.8 µM) |  |  |  | 56 (≈ 99.7 µM) | 14 | 
8 | CC(C)OC(=O)CC[C@@H](C)[C@H]1CCC2C3CCC4C[C@@H](NCCCN(CCCN)CCCN)CC[C@]4(C)C3CC[C@@]21C (stereo partly drawn) [(47), isopropyl 3β-(tris(3-aminopropyl)amine)lithocholate] | 7 (≈ 11.9 µM) | 4 (≈ 6.79 µM) | 30 |  | 30 (≈ 50.9 µM) |  |  |  | 60 (≈ 102 µM) | 4 | IC50 (CHO-K1 cells; CHO-K1, CHO (Example 7), read-out: IC50 (μg/mL) CHO): 120 µg/mL (≈ 204 µM); IC50 (C. albicans; [10]): 2 µg/mL (≈ 3.4 µM)
9 | CC(C)OC(=O)CC[C@@H](C)[C@H]1CCC2C3CCC4C[C@@H](NCCN(CCN)CCN)CC[C@]4(C)C3CC[C@@]21C (stereo partly drawn) [(48), isopropyl 3β-(tris(2-aminoethyl)amine)lithocholate] |  | 7 (≈ 12.8 µM) | 55 |  |  |  |  |  |  | 7 | 
10 | CC(C)OC(=O)CC[C@@H](C)[C@H]1CCC2C3CCC4C[C@@H](NCCCN(C)CCCN)CC[C@]4(C)C3CC[C@@]21C (stereo partly drawn) [(49), isopropyl 3β-(bis(3-aminopropyl)methylamine)lithocholate] | 27 (≈ 49.5 µM) | 14 (≈ 25.6 µM) | 55 |  | 27 (≈ 49.5 µM) |  |  |  | 27 (≈ 49.5 µM) | 14 | 
11 | methyl 3β-(bis(3-aminopropyl)methylamine)ursodeoxycholate [(53)] |  |  |  |  |  |  |  | 7 |  |  | MIC S. aureus Animal (340) (S. aureus (340)): 27 µg/mL; MIC E. coli Animal (1956) (E. coli (1956)): 55 µg/mL; MIC S. intermedius Animal (1051997) (S. intermedius (1051997)): 7 µg/mL; MIC S. aureus Human ATCC25923 (S. aureus ATCC25923; Gram-positive): 27 µg/mL; MIC P. aeruginosa Animal (1051575) (P. aeruginosa (1051575) [3]): 55 µg/mL; MIC E. faecalis Human ATCC29212 (E. faecalis ATCC29212; Gram-positive): 55 µg/mL; IC50 (μg/mL) CHO (CHO-K1 cells; CHO (Example 7)): 50 µg/mL; IC50 (μg/mL) CHO (CHO-K1 cells; Table III, WST1, CHO-K1 cells, 24 h, concentration reducing cell viability by 50%): 50 µg/mL; MIC E. coli Human ATCC28922 (E. coli ATCC28922; Gram-negative): 55 µg/mL; IC50 (μg/mL) C. albicans (C. albicans; [10]): 3 µg/mL; MIC P. aeruginosa Human ATCC27853 (P. aeruginosa ATCC27853; Gram-negative): 55 µg/mL

Reference: US20190255073A1, “ESTERS OF 3-POLYAMINE DERIVATIVES OF BILE ACIDS FOR THE TREATMENT OF INFECTIONS” (VIRBAC, priority 2016, published 2019)
